Here are results for one molecule from patent publication US20230270797A1, “NOVEL STRAIN OF THE SPECIES LACTICASEIBADLLUS RHAMNOSUS, COMPOSITIONS THEREOF AND USE THEREOF IN THE TREATMENT OF GENITOURINARY INFECTIONS” (URIACH ITALY S.R.L., priority 2020, published 2023).

This assay can be described thus: Antioxidant activity, linoleic acid peroxidation (ferric thiocyanate). The class given is biochemical. The following applies: cell free supernatant; linoleic acid 50 mM; negative control (MRS broth) Abs500 nm = 2. As for the experimental part:
Oxidation was measured by determining ferric thiocyanate. Butylated hydroxytoluene (BHT) and α-tocopherol (1 mg/mL) were used as positive controls. MRS broth was used as negative control. […] The analysis was carried out in triplicate.

For `Cc1c(C)c2c(c(C)c1O)CC[C@@](C)(CCC[C@H](C)CCC[C@H](C)CCCC(C)C)O2` [positive control, α-tocopherol], the “Antioxidant activity, absorbance values at 500nm” value is on record as “positive control: Abs500 nm = 0.25)”.
